Experiment [1] concerns the target T1, Protein farnesyltransferase (Mus musculus) (UniProt Q61239+Q8K2I1). In words: Percent inhibition of H-Ras transformed NIH-3T3-cell proliferation at 100 nM. In kind it is functional, cell-based. Particulars: NIH3T3.
In experiment [2] the target is Geranylgeranyl transferase type I (Bos taurus, UniProt P29702+Q5EAD5). The experiment can be described thus: Inhibition of bovine Geranylgeranyltransferase. Type of experiment: protein-complex assay.
Experiment [3] deals with Protein farnesyltransferase (Bos taurus, UniProt P29702+P49355). The experiment can be described thus: Inhibition of bovine farnesyltransferase. Type of experiment: protein-complex assay.
In experiment [4] the target is Protein farnesyltransferase (Mus musculus, UniProt Q61239+Q8K2I1). The experiment can be described thus: (§1) Inhibition of H-Ras transformed NIH-3T3-cell proliferation. Type of experiment: functional, cell-based. The following applies: nih3t3.
Experiment [5] addresses T1, Protein farnesyltransferase (Mus musculus). The experiment is described as §1. In kind it is functional. The following applies: concentration not given here.

Take `COc1cccc(-c2cc(C#N)ccc2COCc2cncn2Cc2ccc(C#N)nc2)c1`: in experiment [1], the inhibition – broadly, the relative decrease from the control value, in per cent – is 35%. The IC50 (commonly the concentration at which inhibition is half-maximal) in experiment [2] was > 10000 nM; in experiment [3], 1.5 nM.

Turning to `CS(=O)(=O)c1ccc(Cn2cncc2COCc2ccc(C#N)cc2-c2cccc(Cl)c2)cc1`, the IC50 in experiment [3] came to 96 nM.

For the compound `N#Cc1ccc(Cn2cncc2COCc2ccc(C#N)cc2-c2cccc(OC(F)(F)F)c2)cc1`, the inhibition in experiment [1] was 54%. For the same compound, the IC50 in experiment [2] was found to be 990 nM; in experiment [3] it was 0.49 nM.

In the case of `CC(=O)Nc1cccc(-c2cc(C#N)ccc2COCc2cncn2Cc2ccc(C#N)cc2)c1`, the inhibition in experiment [1] came out at 92%. The IC50 in experiment [3] was 13 nM.

In experiment [1], `N#Cc1ccc(Cn2cncc2COCc2ccc(C#N)cc2-c2cccc3c2OCO3)cc1` gave an inhibition of 54%. This compound also yielded an IC50 in experiment [3] of 0.81 nM.

The compound `COc1ccc(-c2cc(C#N)ccc2COCc2cncn2Cc2ccc(C#N)cc2)cn1` came in with an inhibition in experiment [1] of 25%. The IC50 in experiment [2] was > 10000 nM; in experiment [3], 7.6 nM.

In experiment [1], `N#Cc1ccc(OCc2cncn2Cc2ccc(C#N)c(-c3cccc4ccccc34)c2)cc1` yielded an inhibition of 49%. The 50% inhibitory concentration (IC50) was found to be 565 nM in experiment [2] and 0.32 nM in experiment [3].

As to `N#Cc1ccc(Cn2cncc2COCc2ccc(C#N)cc2-c2ccc(OC(F)(F)F)cc2)cc1`, a half-maximal response in experiment [4] (EC50) required 52 nM. The IC50 in experiment [2] stood at 1300 nM; in experiment [3] it was 0.65 nM.

Regarding `CCOc1cccc(-c2cc(C#N)ccc2COCc2cncn2Cc2ccc(C#N)nc2)c1`, the values for the IC50 in experiment [2] and in experiment [3] were > 10000 nM and 0.58 nM, respectively.

As to `N#Cc1ccc(Cn2cncc2COCc2ccc(Cl)cc2-c2cccc(Cl)c2)cc1`, the inhibition in experiment [5] came out at 30%. For the same compound, the IC50 in experiment [2] is 8200 nM; in experiment [3] it was 0.62 nM.

`CCOc1ccc(-c2cc(C#N)ccc2COCc2cncn2Cc2ccc(C#N)cc2)cc1` came in with an inhibition in experiment [1] of 52%. Besides, the IC50 in experiment [2] turned out to be 2300 nM; in experiment [3], 1.2 nM.

`Cn1cncc1[C@@](N)(c1ccc(Cl)cc1)c1ccc2c(c1)c(-c1cccc(Cl)c1)cc(=O)n2C` [TIPIFARNIB] registered an IC50 in experiment [2] of 1100 nM.

Take `N#Cc1ccc(Cn2cncc2COCc2ccc(C#N)cc2-c2ccc(C(F)(F)F)cc2)cc1`: the IC50 in experiment [2] came out at 8600 nM; in experiment [3] it was 4.3 nM.

In experiment [1], `N#Cc1ccc(Cn2cncc2COCc2ccc(C#N)cc2-c2ccc3ccccc3c2)cc1` returned an inhibition of 53%. For the same compound, the concentration for half-maximal inhibition (IC50) in experiment [2] came to 3400 nM; in experiment [3] it was 0.92 nM.

With `N#Cc1ccc(OCc2cncn2Cc2ccc(C#N)c(-c3cccc4ccccc34)c2)nc1`, the IC50 came to 420 nM in experiment [2] and 0.9 nM in experiment [3].

Compound `CC(C)(C)c1ccc(-c2cc(C#N)ccc2COCc2cncn2Cc2ccc(C#N)cc2)cc1` gave an inhibition in experiment [1] of 49%. Also, the IC50 turned out to be 870 nM in experiment [2] and 0.44 nM in experiment [3].

The compound `N#Cc1ccc(COCc2cncn2Cc2ccc(C#N)cc2-c2cccc3ccccc23)c(-c2ccc3c(c2)OCO3)c1` registered an inhibition in experiment [1] of 0%. The IC50 came out at 1400 nM in experiment [2] and 6.8 nM in experiment [3].

In the case of `N#Cc1ccc(COCc2cncn2Cc2ccc(C#N)nc2)c(-c2ccc3c(c2)OCO3)c1`, the 50% inhibitory concentration (IC50) in experiment [2] was > 10000 nM; in experiment [3] it was 3 nM.

In the case of `CCOc1cccc(-c2cc(C#N)ccc2COCc2cncn2Cc2ccc(Cl)cc2)c1`, the IC50 is > 10000 nM in experiment [2] and 1.4 nM in experiment [3].

Turning to `N#Cc1ccc(COCc2cncn2Cc2ccc(Cl)cc2)c(-c2ccc3c(c2)OCO3)c1`, the inhibition in experiment [1] stood at 11%. Further, the IC50 in experiment [2] is > 10000 nM; in experiment [3], 8.3 nM.

In the case of `CC(=O)c1ccc(-c2cc(C#N)ccc2COCc2cncn2Cc2ccc(C#N)cc2)cc1`, the values for the IC50 in experiment [2] and in experiment [3] were > 10000 nM and 1.3 nM, respectively.

`COc1cccc(-c2cc(C#N)ccc2COCc2cncn2Cc2ccc(Cl)cc2)c1` returned an inhibition in experiment [1] of 0%. Also, the IC50 in experiment [2] is > 10000 nM; in experiment [3], 2.2 nM.

`N#Cc1ccc(Cn2cncc2COCc2ccc(C#N)cc2-c2cccc(Cl)c2)cc1`: in experiment [4], the EC50 – broadly, the midpoint of the concentration-response curve – was 7.7 nM. Further, the results for the IC50 in experiment [2] and in experiment [3] were 6800 nM and 0.37 nM, respectively.

In the case of `N#Cc1ccc(COCc2cncn2Cc2ccc(C#N)cc2-c2cccc(Cl)c2)c(-c2cccc(Cl)c2)c1`, the inhibition in experiment [1] worked out at 0%. Besides, the IC50 in experiment [2] amounted to 87 nM; in experiment [3], 10 nM.

The compound `COc1cccc(-c2cc(C#N)ccc2COCc2cncn2Cc2ccc(C#N)cn2)c1` registered an inhibition in experiment [1] of 49%. Moreover, the half-inhibitory concentration (IC50) is > 10000 nM in experiment [2] and 4.4 nM in experiment [3].

Compound `N#Cc1ccc(Cn2cncc2COCc2ccc(C#N)cc2-c2ccc(Cl)c(Cl)c2)cc1` registered an inhibition in experiment [1] of 10%. Further, the IC50 stood at 730 nM in experiment [2] and 0.37 nM in experiment [3].

Consider `Cc1ccc(-c2cc(C#N)ccc2COCc2cncn2Cc2ccc(C#N)cc2)cc1C`, for which the inhibition in experiment [1] turned out to be 53%. Also, the figures for the IC50 in experiment [2] and in experiment [3] were > 10000 nM and 0.6 nM, respectively.

`N#Cc1ccc(Cn2cncc2COCc2ccc(C#N)c(-c3cccc4ccccc34)c2)cc1` gave an inhibition in experiment [1] of 5%. Further, the IC50 in experiment [2] stood at 1300 nM; in experiment [3], 4.8 nM.

On to `N#Cc1ccc(Cn2cncc2COCc2ccc(C#N)cc2-c2ccc3c(c2)OCO3)nc1`, for which the figures for the half-inhibitory concentration (IC50) in experiment [2] and in experiment [3] were 5500 nM and 4.7 nM, respectively.

`N#Cc1ccc(Cn2cncc2COCc2ccc(C#N)cc2-c2cccc3ccccc23)cc1` had an inhibition in experiment [1] of 43%. Moreover, the results for the IC50 in experiment [2] and in experiment [3] were 2300 nM and 1.3 nM, respectively.

Compound `N#Cc1ccc(COCc2cncn2Cc2ccc(C#N)nc2)c(-c2cccc(Cl)c2)c1` registered an inhibition in experiment [1] of 43%. The IC50 in experiment [2] was > 10000 nM; in experiment [3], 3 nM.

With `N#Cc1ccc(COCc2cncn2Cc2ccc(C#N)cc2-c2cccc3ccccc23)cc1`, the IC50 in experiment [2] was 2100 nM; in experiment [3], 0.96 nM.

Turning to `N#Cc1ccc(Cn2cncc2CNCc2ccc(C#N)c(-c3cccc4ccccc34)c2)cc1`, the inhibition in experiment [1] was found to be 5%. The values for the IC50 in experiment [2] and in experiment [3] were 220 nM and 0.65 nM, respectively.

Take `CC1=C(Br)C=C(C#N)C(=O)C1Cn1cncc1COCc1ccc(C#N)cc1-c1ccc2c(c1)OCO2` (stereo unspecified): in experiment [3], the IC50 is > 1000 nM.

On to `N#Cc1ccc(Cn2cncc2COCc2cnc(C#N)cc2-c2cccc(Cl)c2)cc1`, for which, in experiment [1], the inhibition came out at 26%. The concentration for half-maximal inhibition (IC50) was 810 nM in experiment [2] and 4.3 nM in experiment [3].

In turn, `N#Cc1ccc(Cn2cncc2COc2ccc(Cl)cc2-c2cccc(Cl)c2)cc1` had an inhibition in experiment [1] of 0%. Besides, the figures for the IC50 in experiment [2] and in experiment [3] were 1800 nM and 4 nM, respectively.

Turning to `N#Cc1ccc(Cn2cncc2COCc2ccc(C#N)cc2-c2cccc(Cl)c2)nc1`, the IC50 in experiment [2] stood at 2200 nM; in experiment [3], 1.7 nM.

Take `N#Cc1ccc(Cn2cncc2COc2ccc(C#N)c(-c3cccc4ccccc34)c2)cc1`: the IC50 in experiment [2] turned out to be 240 nM; in experiment [3], 0.38 nM.

Values taken from ChEMBL document CHEMBL1137997, “Synthesis and activity of 1-aryl-1'-imidazolyl methyl ethers as non-thiol farnesyltransferase inhibitors” (Bioorg Med Chem Lett, 2004).
